Experimental data reported in ChEMBL document CHEMBL1139588, “Ketoheterocycle-based inhibitors of cathepsin K: a novel entry into the synthesis of peptidic ketoheterocycles” (Bioorg Med Chem Lett, 2005).
pIC50: −log10 of the molar value.

Key:
Cathepsin K = target: T1, Cathepsin K (Homo sapiens, UniProt P43235); experiment: Inhibition of 10 uM Cbz-Phe-Arg-AMC binding to human cathepsin K by fluorescence assay
T1 sequence (P43235 whole entry): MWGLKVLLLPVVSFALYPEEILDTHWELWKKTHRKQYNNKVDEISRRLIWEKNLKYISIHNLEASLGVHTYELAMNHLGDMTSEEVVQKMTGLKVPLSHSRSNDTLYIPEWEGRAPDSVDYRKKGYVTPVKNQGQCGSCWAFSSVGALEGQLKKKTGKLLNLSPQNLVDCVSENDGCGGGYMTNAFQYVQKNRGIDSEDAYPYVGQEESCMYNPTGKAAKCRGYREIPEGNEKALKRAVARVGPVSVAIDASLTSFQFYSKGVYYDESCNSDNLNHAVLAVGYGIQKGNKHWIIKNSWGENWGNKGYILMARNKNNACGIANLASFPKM

[1] = target: T2, Cathepsin K (Homo sapiens) (UniProt P43235); experiment: Percentage inhibition of 10 uM Cbz-Phe-Arg-AMC binding to human cathepsin K at 12.6 uM by fluorescence assay
T2 sequence (whole entry): T1 sequence (P43235 whole entry)

Homo sapiens [2] = organism: Homo sapiens; experiment: Ratio of inhibitory potency against cathepsins K and S using 10 uM Cbz-Phe-Arg-AM in fluorescence assay
Homo sapiens [3] = organism: Homo sapiens; experiment: Ratio of inhibitory potency against cathepsins K and V using 2 uM Cbz-Phe-Arg-AMC in fluorescence assay
Homo sapiens [4] = organism: Homo sapiens; experiment: Ratio of inhibitory potency against cathepsins K and B using 10 uM Cbz-Phe-Arg-AMC in fluorescence assay
[5] = target: Cathepsin (L and K) (Homo sapiens) (UniProt P43235+P07711); experiment: Ratio of inhibitory potency against cathepsins L and K using 5 uM Cbz-Phe-Arg-AMC in fluorescence assay; assay type: protein assay
Cathepsin (L and K) (Homo sapiens), sequence (P07711 whole entry, looked up, one chain of several): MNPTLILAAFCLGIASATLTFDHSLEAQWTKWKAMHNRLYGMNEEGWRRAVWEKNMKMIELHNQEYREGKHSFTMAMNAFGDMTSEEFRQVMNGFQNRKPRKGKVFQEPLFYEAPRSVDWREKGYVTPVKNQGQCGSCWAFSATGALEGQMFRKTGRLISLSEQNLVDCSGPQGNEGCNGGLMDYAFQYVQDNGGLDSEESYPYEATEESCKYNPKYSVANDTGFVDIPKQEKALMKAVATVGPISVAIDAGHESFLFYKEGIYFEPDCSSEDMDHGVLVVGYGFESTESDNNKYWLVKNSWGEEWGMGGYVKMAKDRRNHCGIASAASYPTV

| SMILES | pIC50 (Cathepsin K) | inhibition [1] [%] | further results |
| --- | --- | --- | --- |
| CCCC[C@H](NC(=O)OC(C(C)C)C(C)C)C(=O)c1cccs1 | 5.72 |  |  |
| CCCC[C@H](NC(=O)OC(Cc1ccccc1)C(C)C)C(=O)c1nc(C(=O)OCC)cs1 (stereo partly specified) |  | 28 |  |
| CCCC[C@H](NC(=O)OC(C(C)C)C(C)C)C(=O)c1ccccc1 |  | 2 |  |
| CCCC[C@H](NC(=O)O[C@@H](C)CC1CCCCC1)C(=O)c1nc(C)c(C(=O)OCC)s1 |  | 10 |  |
| CCCC[C@H](NC(=O)O[C@@H](C)CC1CCCCC1)C(=O)c1nc(-c2ccccc2)cs1 | 5.15 |  |  |
| CCOC(=O)c1csc(C(=O)CNC(=O)[C@H](CC(C)C)NC(=O)OCc2ccccc2)n1 |  | 20 |  |
| CCCC[C@H](NC(=O)OC(Cc1ccccc1)CC(C)C)C(=O)c1nc(C(=O)OCC)cs1 (stereo partly specified) |  | 31 |  |
| CCCC[C@H](NC(=O)O[C@@H](C)CC1CCCCC1)C(=O)c1nnc(-c2ccccc2)o1 | 5.40 |  |  |
| CCCC[C@H](NC(=O)OC(CC)Cc1ccccc1)C(=O)c1nc(C(=O)OCC)cs1 (stereo partly specified) | < 4.89 |  |  |
| CCCOc1ccccc1C(=O)NCC(=O)c1nc(C(=O)OCC)cs1 | < 4.89 |  |  |
| CCOC(=O)c1csc(C(=O)CNC(=O)OC(CC)Cc2ccccc2)n1 (stereo unspecified) |  | 0 |  |
| CCCC[C@H](NC(=O)O[C@@H](C)CC1CCCCC1)C(=O)c1nc(C(F)(F)F)cs1 | 4.89 |  |  |
| CCCC[C@H](NC(=O)O[C@@H](C)CC1CCCCC1)C(=O)c1noc(C)n1 | 5.09 |  |  |
| CCOC(=O)c1csc(C(=O)CNC(=O)O[C@@H](C)CC2CCCCC2)n1 |  | 0 |  |
| CCCC[C@H](NC(=O)[C@H](CC(C)C)NC(=O)OCc1ccccc1)C(=O)c1nc(C(=O)OCC)cs1 | 4.89 |  |  |
| CCCC[C@H](NC(=O)O[C@@H](C)CC1CCCCC1)C(=O)c1nc(C(=O)OCC)cs1 | 6.64 |  | Ratio (Homo sapiens [2]): > 40; Ratio (Homo sapiens [3]): > 40; Ratio (Homo sapiens [4]): > 40; Ratio [5]: > 40 |
| CCCC[C@H](NC(=O)O[C@@H](C)CC1CCCCC1)C(=O)c1nccs1 | 5.51 |  |  |
